US12384797B2, “Thioeno[3,2-b] pyridin-7-amine compounds for treating familial dysautonomia” (PTC THERAPEUTICS, INC., priority 2019, dated 2025)

Tested on: Elongator complex protein 1 (ELP1, also referred to as IKBKAP)
Experiment: IKBKAP-HTRF assay (IKBKAP protein in lysates of FD patient-derived fibroblasts)
Type: cell-based, human
Conditions: 48 hours incubation, 7-point concentration curve
Outline: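 Sandwich HTRF with two labelled anti-IKAP antibodies (overnight, 4 °C) measured IKBKAP in lysates of FD patient fibroblasts. Cells were exposed to compound for 48 h at 37 °C (7-point curve, 3.16-fold steps, triplicates). EC2x is the dose doubling IKBKAP versus DMSO control; MFI is sample ΔF divided by vehicle ΔF.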

Structure (SMILES) | EC2x for IKBKAP protein expression (concentration producing two times the amount of IKBKAP protein vs DMSO vehicle control) | MFI (maximum fold increase in IKBKAP protein abundance relative to the vehicle control)
Cc1c(C[C@@H](N)C(=O)N(C)c2ccccc2)sc2c(NCc3ccco3)cc(Cl)nc12 [Compound 141, 3-(5-chloro-7-{[(furan-2-yl)methyl]amino}-3-methylthieno[3,2-b]pyridin-2-yl)-N-methyl-N-phenyl-D-alaninamide] | *** (between >0.02 μM and ≤0.5 μM is indicated by three stars (***)) | **** (between >3.9 and ≤4.9 is indicated by four stars (****))
Cc1ccc(NC(=O)[C@H](N)Cc2sc3c(NCc4ccco4)cc(Cl)nc3c2C)cc1 [Compound 142, 3-(5-chloro-7-{[(furan-2-yl)methyl]amino}-3-methylthieno[3,2-b]pyridin-2-yl)-N-(4-methylphenyl)-D-alaninamide] | **** (between >0.005 μM and ≤0.02 μM is indicated by four stars (****)) | ***** (>4.9 is indicated by five stars (*****))
Cc1c(C[C@@H](N)C(=O)Nc2cccc(Cl)c2)sc2c(NCc3ccco3)cc(Cl)nc12 [Compound 143, 3-(5-chloro-7-{[(furan-2-yl)methyl]amino}-3-methylthieno[3,2-b]pyridin-2-yl)-N-(3-chlorophenyl)-D-alaninamide] | *** (between >0.02 μM and ≤0.5 μM is indicated by three stars (***)) | ***** (>4.9 is indicated by five stars (*****))
COc1cccc(NC(=O)[C@H](N)Cc2sc3c(NCc4ccco4)cc(Cl)nc3c2C)c1 [Compound 144, 3-(5-chloro-7-{[(furan-2-yl)methyl]amino}-3-methylthieno[3,2-b]pyridin-2-yl)-N-(3-methoxyphenyl)-D-alaninamide] | **** (between >0.005 μM and ≤0.02 μM is indicated by four stars (****)) | ***** (>4.9 is indicated by five stars (*****))
Cc1c(C[C@@H](N)C(=O)Nc2ccnn2C)sc2c(NCc3ccco3)cc(Cl)nc12 [Compound 145, 3-(5-chloro-7-{[(furan-2-yl)methyl]amino}-3-methylthieno[3,2-b]pyridin-2-yl)-N-(1-methyl-1H-pyrazol-5-yl)-D-alaninamide] | *** (between >0.02 μM and ≤0.5 μM is indicated by three stars (***)) | ***** (>4.9 is indicated by five stars (*****))
Cc1c(C(C)CO)sc2c(NCc3ccco3)cc(Cl)nc12 (stereo not drawn) [Compound 146, 2-(5-chloro-7-{[(furan-2-yl)methyl]amino}-3-methylthieno[3,2-b]pyridin-2-yl)propan-1-ol] | * (An EC2x>1 μM is indicated by one star (*)) | * (An MFI≤1.9 is indicated by one star (*))
Cc1c(C(C)(O)CO)sc2c(NCc3ccco3)cc(Cl)nc12 (stereo not drawn) [Compound 147, 2-(5-chloro-7-{[(furan-2-yl)methyl]amino}-3-methylthieno[3,2-b]pyridin-2-yl)propane-1,2-diol] | *** (between >0.02 μM and ≤0.5 μM is indicated by three stars (***)) | ** (between >1.9 and ≤2.9 is indicated by two stars (**))
Cc1c(C(C)CN)sc2c(NCc3ccco3)cc(Cl)nc12 (stereo not drawn) [Compound 148, 2-(1-aminopropan-2-yl)-5-chloro-N-[(furan-2-yl)methyl]-3-methylthieno[3,2-b]pyridin-7-amine] | ***** (≤0.005 μM is indicated by five stars (*****)) | **** (between >3.9 and ≤4.9 is indicated by four stars (****))
FC(F)Oc1csc2c(NCc3cccs3)cc(Cl)nc12 [Compound 149, 5-chloro-3-(difluoromethoxy)-N-[(thiophen-2-yl)methyl]thieno[3,2-b]pyridin-7-amine] | *** (between >0.02 μM and ≤0.5 μM is indicated by three stars (***)) | **** (between >3.9 and ≤4.9 is indicated by four stars (****))
Cc1c([C@H](C)[C@H](C)N)sc2c(NCc3ccco3)cc(Cl)nc12 [Compound 150, 2-[(2R,3S)-3-aminobutan-2-yl]-5-chloro-N-[(furan-2-yl)methyl]-3-methylthieno[3,2-b]pyridin-7-amine] | ***** (≤0.005 μM is indicated by five stars (*****)) | ***** (>4.9 is indicated by five stars (*****))
Cc1c([C@@H](C)[C@H](C)N)sc2c(NCc3ccco3)cc(Cl)nc12 [Compound 151, 2-[(2S,3S)-3-aminobutan-2-yl]-5-chloro-N-[(furan-2-yl)methyl]-3-methylthieno[3,2-b]pyridin-7-amine] | *** (between >0.02 μM and ≤0.5 μM is indicated by three stars (***)) | ** (between >1.9 and ≤2.9 is indicated by two stars (**))
Cc1c(CCN)sc2c(NCc3ccco3)cc(Cl)nc12 [Compound 152, 2-(2-aminoethyl)-5-chloro-N-[(furan-2-yl)methyl]-3-methylthieno[3,2-b]pyridin-7-amine] | *** (between >0.02 μM and ≤0.5 μM is indicated by three stars (***)) | ** (between >1.9 and ≤2.9 is indicated by two stars (**))
C[C@H](N)C(O)c1sc2c(NCc3ccco3)cc(Cl)nc2c1Br (stereo partly drawn) [Compound 153, (2S)-2-amino-1-(3-bromo-5-chloro-7-{[(furan-2-yl)methyl]amino}thieno[3,2-b]pyridin-2-yl)propan-1-ol] | *** (between >0.02 μM and ≤0.5 μM is indicated by three stars (***)) | ** (between >1.9 and ≤2.9 is indicated by two stars (**))
C[C@H](N)C(F)c1sc2c(NCc3ccco3)cc(Cl)nc2c1Br (stereo partly drawn) [Compound 154, 2-[(2S)-2-amino-1-fluoropropyl]-3-bromo-5-chloro-N-[(furan-2-yl)methyl]thieno[3,2-b]pyridin-7-amine] | ***** (≤0.005 μM is indicated by five stars (*****)) | **** (between >3.9 and ≤4.9 is indicated by four stars (****))
C[C@H](N)C(O)c1sc2c(NCc3cccs3)cc(Cl)nc2c1Br (stereo partly drawn) [Compound 155, (2S)-2-amino-1-(3-bromo-5-chloro-7-{[(thiophen-2-yl)methyl]amino}thieno[3,2-b]pyridin-2-yl)propan-1-ol] | * (An EC2x>1 μM is indicated by one star (*)) | * (An MFI≤1.9 is indicated by one star (*))
C[C@H](N)C(=O)c1sc2c(NCc3cccs3)cc(Cl)nc2c1Br [Compound 156, (2S)-2-amino-1-(3-bromo-5-chloro-7-{[(thiophen-2-yl)methyl]amino}thieno[3,2-b]pyridin-2-yl)propan-1-one] | *** (between >0.02 μM and ≤0.5 μM is indicated by three stars (***)) | *** (between >2.9 and ≤3.9 is indicated by three stars (***))
C[C@H](N)C(=O)c1sc2c(NCc3ccco3)cc(Cl)nc2c1Br [Compound 157, (2S)-2-amino-1-(3-bromo-5-chloro-7-{[(furan-2-yl)methyl]amino}thieno[3,2-b]pyridin-2-yl)propan-1-one] | *** (between >0.02 μM and ≤0.5 μM is indicated by three stars (***)) | **** (between >3.9 and ≤4.9 is indicated by four stars (****))
C[C@H](N)C(F)c1sc2c(NCc3cccs3)cc(Cl)nc2c1Br (stereo partly drawn) [Compound 158, 2-[(2S)-2-amino-1-fluoropropyl]-3-bromo-5-chloro-N-[(thiophen-2-yl)methyl]thieno[3,2-b]pyridin-7-amine] | ***** (≤0.005 μM is indicated by five stars (*****)) | ***** (>4.9 is indicated by five stars (*****))
C[C@H](N)C(O)c1sc2c(NCc3nccs3)cc(Cl)nc2c1Br (stereo partly drawn) [Compound 159, (2S)-2-amino-1-(3-bromo-5-chloro-7-{[(1,3-thiazol-2-yl)methyl]amino}thieno[3,2-b]pyridin-2-yl)propan-1-ol] | *** (between >0.02 μM and ≤0.5 μM is indicated by three stars (***)) | ** (between >1.9 and ≤2.9 is indicated by two stars (**))
C[C@H](N)C(=O)c1sc2c(NCc3nccs3)cc(Cl)nc2c1Br [Compound 160, (2S)-2-amino-1-(3-bromo-5-chloro-7-{[(1,3-thiazol-2-yl)methyl]amino}thieno[3,2-b]pyridin-2-yl)propan-1-one] | *** (between >0.02 μM and ≤0.5 μM is indicated by three stars (***)) | **** (between >3.9 and ≤4.9 is indicated by four stars (****))
C[C@H](N)C(F)c1sc2c(NCc3nccs3)cc(Cl)nc2c1Br (stereo partly drawn) [Compound 161, 2-[(2S)-2-amino-1-fluoropropyl]-3-bromo-5-chloro-N-[(1,3-thiazol-2-yl)methyl]thieno[3,2-b]pyridin-7-amine] | ***** (≤0.005 μM is indicated by five stars (*****)) | *** (between >2.9 and ≤3.9 is indicated by three stars (***))
